Measurements: PubChem BioAssay AID743302 (Broad Institute, 2014)
Several values for one entry are separate records, joined by “and”; a condition that tells them apart may be missing. Equal values may be shown once. Activity calls are given as the source filed them.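 The calls were made as follows: active = fitted curve rises past activity 40 at a concentration no higher than the top valid tested dose; inconclusive = flat curve at 30 to 70 percent, or poor fit; inactive = the rest, including activity in the opposite direction.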

Tested on: not listed separately
Assay: inducers of C. neoformans cell lysis, dose response, AK release luminescence, dry powder, set 3 (AID 743302)
Conditions: C. neoformans lysis, adenylate kinase release luminescence, 4 h; at 15 µM (top of the series)

**Q.** With COc1ccccc1OCCn1c(=S)[nH]c2ccccc21 as the compound, how does the cell lysis activity read?
**A.** Its cell lysis activity is -4.68% (inactive).

**Q.** Which cell lysis activity does the source give for Cc1ccc(C(C)C)c(OCCn2c(=S)[nH]c3c(F)cccc32)c1 here?
**A.** Its cell lysis activity is -28.6% (inactive).

**Q.** With S=c1[nH]c2ccccc2n1CCOc1ccccc1 as the compound, how does the cell lysis activity read?
**A.** The cell lysis activity was 33.9% (inactive).

**Q.** Which cell lysis activity does the source give for CSc1nc2ccccc2n1CCOc1cc(C)ccc1C(C)C here?
**A.** The cell lysis activity was 3.47% (inactive).

**Q.** For Fc1ccc(OCCn2c(=S)[nH]c3ccccc32)cc1, which cell lysis activity is on record?
**A.** The cell lysis activity was -54.7% (inactive).

**Q.** Which cell lysis activity does the source give for CC(C)(C)c1ccc(OCCn2c(=S)[nH]c3ccccc32)cc1 here?
**A.** The cell lysis activity was 4.17% (inactive).

Tested on: C. neoformans lysis, adenylate kinase release luminescence, 4 h
Assay: as above
Conditions: not given

**Q.** For Cc1ccc(C(C)C)c(OCCn2c(=S)[nH]c3cccc(F)c32)c1, which AC40 is on record?
**A.** The AC40 was > 15000 nM (inactive).

**Q.** Which AC40 does the source give for Cc1ccc(C(C)C)c(OCCn2c(=S)[nH]c3ccccc32)c1 here?
**A.** The AC40 was 3570 nM and 2720 nM.

**Q.** For Cc1cccc(OCCn2c(=S)[nH]c3ccccc32)c1, which AC40 is on record?
**A.** The AC40 was 910 nM.

**Q.** Which AC40 does the source give for Cc1ccc(C(C)C)c(OCCn2c(=S)[nH]c3cccc(C)c32)c1 here?
**A.** The AC40 was 8260 nM.

**Q.** For c1ccc(OCCn2cnc3ccccc32)cc1, which AC40 is on record?
**A.** Its AC40 is > 15000 nM (inactive).

**Q.** Which AC40 does the source give for Cc1ccc(C(C)C)c(OCCn2c(=S)[nH]c3c(C)cccc32)c1 here?
**A.** Its AC40 is 1820 nM.

**Q.** Which AC40 does the source give for Cc1ccc(C(C)C)c(OCCn2c(=S)[nH]c3ccc(Cl)cc32)c1 here?
**A.** Its AC40 is > 15000 nM (inactive).

**Q.** With Cc1ccc(OCCn2c(C)nc3ccccc32)cc1 as the compound, how does the AC40 read?
**A.** The AC40 was > 15000 nM (inactive).

**Q.** Which AC40 does the source give for CC(C)c1ccccc1NCCn1c(=S)[nH]c2ccccc21 here?
**A.** Its AC40 is 5860 nM.

**Q.** Which AC40 does the source give for Cc1ccc(OCCn2c(=S)[nH]c3ccccc32)c(C)c1 here?
**A.** The AC40 was > 15000 nM (inactive).

**Q.** For CC(C)c1ccc(OCCn2c(=S)[nH]c3ccccc32)cc1, which AC40 is on record?
**A.** Its AC40 is 172 nM.

**Q.** With Cc1ccc(OCCn2c(=S)[nH]c3ccccc32)cc1 as the compound, how does the AC40 read?
**A.** Its AC40 is 1140 nM.

**Q.** Which AC40 does the source give for Cc1ccc(C(C)C)c(OCCn2c(=S)[nH]c3ccc(F)cc32)c1 here?
**A.** Its AC40 is 1060 nM.

**Q.** With CC(C)(C)c1ccc(OCCn2cnc3ccccc32)cc1 as the compound, how does the AC40 read?
**A.** Its AC40 is 1950 nM.

**Q.** With Cc1cccc(OCCn2c(=S)[nH]c3c(F)cccc32)c1 as the compound, how does the AC40 read?
**A.** The AC40 was 726 nM and 1300 nM.

**Q.** For Cc1ccc(C(C)C)c(OCCn2c(CO)nc3ccccc32)c1, which AC40 is on record?
**A.** The AC40 was 14000 nM.

**Q.** With Cc1ccc2c(c1)[nH]c(=S)n2CCOc1ccccc1 as the compound, how does the AC40 read?
**A.** Its AC40 is 4240 nM and 940 nM.

**Q.** With CC(C)(C)c1ccccc1OCCn1c(=S)[nH]c2ccccc21 as the compound, how does the AC40 read?
**A.** Its AC40 is 3230 nM.

**Q.** With Cc1ccc(C)c(OCCn2c(=S)[nH]c3ccccc32)c1 as the compound, how does the AC40 read?
**A.** The AC40 was 1820 nM.

**Q.** With O=c1[nH]c2ccccc2n1CCOc1ccccc1 as the compound, how does the AC40 read?
**A.** The AC40 was > 15000 nM (inactive).

**Q.** With Cc1cccc(OCCn2c(=S)[nH]c3cc(C(F)(F)F)ccc32)c1 as the compound, how does the AC40 read?
**A.** Its AC40 is > 15000 nM (inactive).

**Q.** For Cc1ccc(OCCn2c(=S)[nH]c3ccccc32)c(C(C)C)c1, which AC40 is on record?
**A.** Its AC40 is 9540 nM and 1410 nM.

**Q.** With Fc1ccc2[nH]c(=S)n(CCOc3ccccc3)c2c1 as the compound, how does the AC40 read?
**A.** Its AC40 is > 15000 nM (inactive).

**Q.** For Cc1ccc(C(C)C)c(OCCn2c(=S)[nH]c3c(Cl)cccc32)c1, which AC40 is on record?
**A.** Its AC40 is > 15000 nM (inactive).

**Q.** For S=c1[nH]c2ccccc2n1CCOc1ccccc1Cl, which AC40 is on record?
**A.** Its AC40 is 902 nM.

**Q.** Which AC40 does the source give for Cc1ccc(OCCn2c(SCCO)nc3ccccc32)c(C(C)C)c1 here?
**A.** The AC40 was > 15000 nM (inactive).

**Q.** With Fc1ccccc1OCCn1c(=S)[nH]c2ccccc21 as the compound, how does the AC40 read?
**A.** Its AC40 is 8740 nM.

**Q.** Which AC40 does the source give for Cc1cccc(OCCn2c(=S)[nH]c3cc(F)ccc32)c1 here?
**A.** The AC40 was 581 nM and 1820 nM.

**Q.** With COCc1nc2ccccc2n1CCOc1ccc(C(C)(C)C)cc1 as the compound, how does the AC40 read?
**A.** The AC40 was 6790 nM.

**Q.** Which AC40 does the source give for COc1cccc(OCCn2c(=S)[nH]c3ccccc32)c1 here?
**A.** Its AC40 is > 15000 nM (inactive).

**Q.** With Cc1ccc(OCCn2cnc3ccccc32)cc1 as the compound, how does the AC40 read?
**A.** The AC40 was > 15000 nM (inactive).

**Q.** For S=c1[nH]c2ccccc2n1CCOc1ccc(Cl)cc1, which AC40 is on record?
**A.** Its AC40 is 1190 nM.

**Q.** For S=c1[nH]c2cc(Cl)ccc2n1CCOc1ccccc1, which AC40 is on record?
**A.** Its AC40 is 358 nM.

**Q.** For Cc1ccccc1OCCn1c(=S)[nH]c2ccccc21, which AC40 is on record?
**A.** The AC40 was 1870 nM.

**Q.** For Fc1ccc2c(c1)[nH]c(=S)n2CCOc1ccccc1, which AC40 is on record?
**A.** The AC40 was 3060 nM and 1950 nM.

**Q.** For Cc1ccc(C(C)C)c(OCCn2c(=S)[nH]c3cccc(Cl)c32)c1, which AC40 is on record?
**A.** The AC40 was > 15000 nM (inactive).

**Q.** With Cc1ccc(OCCn2cnc3ccccc32)c(C(C)C)c1 as the compound, how does the AC40 read?
**A.** Its AC40 is 3820 nM.

**Q.** For Fc1cccc2c1[nH]c(=S)n2CCOc1ccccc1, which AC40 is on record?
**A.** The AC40 was 3180 nM and 2700 nM and 1570 nM.

**Q.** With Cc1ccc(C(C)C)c(OCCn2c(=S)[nH]c3cc(F)ccc32)c1 as the compound, how does the AC40 read?
**A.** The AC40 was 5510 nM.

**Q.** Which AC40 does the source give for Cc1cccc(OCCn2c(=S)[nH]c3ccccc32)c1C here?
**A.** Its AC40 is > 15000 nM (inactive).

**Q.** With Cc1cccc2[nH]c(=S)n(CCOc3ccccc3)c12 as the compound, how does the AC40 read?
**A.** The AC40 was 211 nM.

**Q.** With CCOc1ccc(OCCn2c(=S)[nH]c3ccccc32)cc1 as the compound, how does the AC40 read?
**A.** The AC40 was 1380 nM.

**Q.** Which AC40 does the source give for COc1ccc(OCCn2c(=S)[nH]c3ccccc32)cc1 here?
**A.** The AC40 was 13700 nM.

**Q.** Which AC40 does the source give for Fc1cccc(OCCn2c(=S)[nH]c3ccccc32)c1 here?
**A.** The AC40 was 3270 nM.

**Q.** For S=c1[nH]c2cccc(Cl)c2n1CCOc1ccccc1, which AC40 is on record?
**A.** Its AC40 is 3600 nM and 619 nM.

**Q.** For Cc1cccc(OCCn2c(=S)[nH]c3ccc(C(F)(F)F)cc32)c1, which AC40 is on record?
**A.** The AC40 was 14300 nM.

**Q.** Which AC40 does the source give for CC(C)c1ccccc1OCCn1c(=S)[nH]c2ccccc21 here?
**A.** Its AC40 is 1110 nM.
